According to ChEMBL document CHEMBL3045409, “Synthesis and biological evaluation of ester derivatives of indomethacin as selective COX-2 inhibitors” (Med Chem Res, 2012):

Columns and labels:
Rattus norvegicus [1] = assay: Anti-inflammatory activity in Rattus norvegicus Sprague-Dawley (rat) assessed as inhibition of carrageenan-induced paw edema at 10 mg/kg, po after 1.5 to 3 hr relative to control; type: functional
Rattus norvegicus [2] = assay: Ulcerogenic activity in Rattus norvegicus Sprague-Dawley (rat) assessed as ulcer index at 10 mg/kg, po after 8 hr; type: toxicity, organism-based; set-up: dose 10 mg/kg, route oral; details: in vivo
[3] = target: T1, Prostaglandin G/H synthase 1 (Ovis aries) (UniProt P05979); assay: Inhibition of Ovis aries (sheep) COX-1 assessed as appearance of oxidized N,N,N',N'-tetramethyl-p-phenylenediamine at 20 uM by colorimetric analysis
T1 sequence (whole entry): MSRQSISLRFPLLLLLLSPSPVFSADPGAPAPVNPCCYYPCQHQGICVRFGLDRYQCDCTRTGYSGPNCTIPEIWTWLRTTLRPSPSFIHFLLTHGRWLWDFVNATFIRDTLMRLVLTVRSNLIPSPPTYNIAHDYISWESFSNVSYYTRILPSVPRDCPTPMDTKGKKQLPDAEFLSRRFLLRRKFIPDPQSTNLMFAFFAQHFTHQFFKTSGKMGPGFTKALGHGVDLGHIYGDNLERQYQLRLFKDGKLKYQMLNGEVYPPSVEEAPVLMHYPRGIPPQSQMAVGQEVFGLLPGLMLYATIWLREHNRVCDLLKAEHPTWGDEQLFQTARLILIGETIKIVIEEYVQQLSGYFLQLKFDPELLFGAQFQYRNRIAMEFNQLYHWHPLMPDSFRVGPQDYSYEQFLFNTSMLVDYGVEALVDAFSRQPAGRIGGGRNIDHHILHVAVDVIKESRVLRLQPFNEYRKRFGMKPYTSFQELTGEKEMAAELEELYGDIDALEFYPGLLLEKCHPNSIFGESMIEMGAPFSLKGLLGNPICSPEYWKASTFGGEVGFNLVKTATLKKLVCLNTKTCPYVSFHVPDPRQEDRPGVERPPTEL

SMILES	inhibition in vivo at 10 mg/kg (Rattus norvegicus [1])	UI (Rattus norvegicus [2])	inhibition [3]
COc1ccc2c(c1)c(CC(=O)OCCN1CCCCC1)c(C)n2C(=O)c1ccc(Cl)cc1	7.23%		
COc1ccc2c(c1)c(CC(=O)OCCN1CCNCC1)c(C)n2C(=O)c1ccc(Cl)cc1	0%		
CCc1ccc(OC(=O)Cc2c(C)n(C(=O)c3ccc(Cl)cc3)c3ccc(OC)cc23)cc1	2.41%		
COc1ccc2c(c1)c(CC(=O)OCc1ccoc1)c(C)n2C(=O)c1ccc(Cl)cc1	0%		
COc1ccc2c(c1)c(CC(=O)Oc1ccc(Cl)cc1)c(C)n2C(=O)c1ccc(Cl)cc1	0%		
CCOC(=O)c1ccc(OC(=O)Cc2c(C)n(C(=O)c3ccc(Cl)cc3)c3ccc(OC)cc23)cc1	19.9%	0	12.9%
COc1ccc2c(c1)c(CC(=O)Oc1c(Cl)c(Cl)c(Cl)c(Cl)c1Cl)c(C)n2C(=O)c1ccc(Cl)cc1	0%		
CCCCOC(=O)c1ccc(OC(=O)Cc2c(C)n(C(=O)c3ccc(Cl)cc3)c3ccc(OC)cc23)cc1	7.83%		
COc1ccc2c(c1)c(CC(=O)Oc1ccc([N+](=O)[O-])cc1)c(C)n2C(=O)c1ccc(Cl)cc1	4.81%		
COc1ccc2c(c1)c(CC(=O)O)c(C)n2C(=O)c1ccc(Cl)cc1 [INDOMETHACIN]	13.9%	50	
COc1ccc2c(c1)c(CC(=O)OCc1ccccc1)c(C)n2C(=O)c1ccc(Cl)cc1	3.61%		
COc1ccc2c(c1)c(CC(=O)OCCc1c(C)cc(C)cc1C)c(C)n2C(=O)c1ccc(Cl)cc1	9.04%		
